This note sets out measurements from ChEMBL document CHEMBL1133963, “Furans with basic side chains: synthesis and biological evaluation of a novel series of antagonists with selectivity for the estrogen receptor alpha” (Bioorg Med Chem Lett, 2001).

Test [1] addresses T1, Estrogen receptor beta (Homo sapiens, UniProt Q92731). The test can be described thus: Displacement of [3H]estradiol from Estrogen receptor beta.
The target in test [2] is T2, Estrogen receptor (Homo sapiens, UniProt P03372).
T2 sequence (P03372 whole entry): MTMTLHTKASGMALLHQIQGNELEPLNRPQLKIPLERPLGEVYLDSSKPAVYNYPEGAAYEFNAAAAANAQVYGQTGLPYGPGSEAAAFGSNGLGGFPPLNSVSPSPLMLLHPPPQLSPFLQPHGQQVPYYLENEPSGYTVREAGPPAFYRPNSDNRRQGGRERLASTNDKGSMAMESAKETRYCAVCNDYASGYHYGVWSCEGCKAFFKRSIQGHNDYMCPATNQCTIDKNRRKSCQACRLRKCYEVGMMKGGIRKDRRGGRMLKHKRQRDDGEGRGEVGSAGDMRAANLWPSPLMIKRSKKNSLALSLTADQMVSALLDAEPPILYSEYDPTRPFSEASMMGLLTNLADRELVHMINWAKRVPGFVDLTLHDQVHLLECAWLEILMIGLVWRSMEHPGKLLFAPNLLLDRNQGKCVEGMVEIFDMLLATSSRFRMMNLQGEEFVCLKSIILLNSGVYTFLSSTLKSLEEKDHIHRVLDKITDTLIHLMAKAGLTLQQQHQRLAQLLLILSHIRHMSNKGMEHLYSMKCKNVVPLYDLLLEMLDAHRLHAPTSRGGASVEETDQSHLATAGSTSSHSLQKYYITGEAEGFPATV
The test is described as follows: Displacement of [3H]estradiol from Estrogen receptor alpha.

For test [3], the target named is T2, Estrogen receptor. The test can be described thus: Inhibitory activity against Estrogen receptor alpha.
Test [4] deals with T1, Estrogen receptor beta. The test is described as follows: Inhibitory activity against Estrogen receptor beta.

T1 sequence (Q92731 whole entry): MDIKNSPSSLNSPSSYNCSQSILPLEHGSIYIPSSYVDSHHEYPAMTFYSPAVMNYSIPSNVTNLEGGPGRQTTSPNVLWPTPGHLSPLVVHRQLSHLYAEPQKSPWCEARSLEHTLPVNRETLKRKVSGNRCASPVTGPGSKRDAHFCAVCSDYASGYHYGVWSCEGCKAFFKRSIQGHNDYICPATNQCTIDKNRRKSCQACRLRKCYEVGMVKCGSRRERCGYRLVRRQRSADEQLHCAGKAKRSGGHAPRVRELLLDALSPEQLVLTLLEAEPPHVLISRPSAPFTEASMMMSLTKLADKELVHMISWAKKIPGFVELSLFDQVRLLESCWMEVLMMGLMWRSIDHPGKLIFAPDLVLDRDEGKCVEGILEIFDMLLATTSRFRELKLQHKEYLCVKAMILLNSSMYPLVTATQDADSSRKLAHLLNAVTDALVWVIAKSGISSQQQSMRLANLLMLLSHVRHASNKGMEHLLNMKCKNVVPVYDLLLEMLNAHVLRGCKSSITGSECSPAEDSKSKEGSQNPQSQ

With `Cc1c(-c2ccc(O)cc2)oc(-c2ccc(O)cc2)c1-c1ccc(OCCN2CCCCC2)cc1`, the RBA at Estrogen receptor beta [1] stood at 0.47%; on Estrogen receptor [2], 32%.

Take `CCc1c(-c2ccc(OCCN3CCCCC3)cc2)oc(-c2ccc(O)cc2)c1-c1ccc(O)cc1`: the RBA worked out at 0.06% at Estrogen receptor beta [1] and 0.36% at Estrogen receptor [2].

For the compound `CCc1c(-c2ccc(O)cc2)oc(-c2ccc(O)cc2)c1-c1ccc(OC)cc1`, the values for the RBA on Estrogen receptor beta [1] and at Estrogen receptor [2] were 0.91% and 2.5%, respectively.

`CCc1c(-c2ccc(O)cc2)oc(-c2ccc(O)cc2)c1-c1ccc(OCCN2CCCCC2)cc1`: the RBA amounted to 3.1% on Estrogen receptor beta [1] and 75% at Estrogen receptor [2]. For the same compound, the IC50 was determined as 65 nM on Estrogen receptor [3] and 480 nM against Estrogen receptor beta [4].

As for `CCc1c(-c2ccc(O)cc2)oc(-c2ccccc2)c1-c1ccc(OCCN2CCCCC2)cc1`, the RBA at Estrogen receptor beta [1] stood at 0.43%; at Estrogen receptor [2], 3.8%.

In the case of `CCc1c(-c2ccccc2)oc(-c2ccc(O)cc2)c1-c1ccc(OCCN2CCCCC2)cc1`, the RBA on Estrogen receptor beta [1] came out at 20%; at Estrogen receptor [2], 60%.

Take `CCCc1c(-c2ccc(O)cc2)oc(-c2ccc(O)cc2)c1-c1ccc(OCCN2CCCCC2)cc1`: the RBA amounted to 4% at Estrogen receptor beta [1] and 34% at Estrogen receptor [2].
